Source: paper PMC10077444, “Evaluation of In Vivo Biological Activity Profiles of Isoindole-1,3-dione Derivatives: Cytotoxicity, Toxicology, and Histopathology Studies” (ACS Omega, 2023)
Several values for one entry are separate records, joined by “and”; a condition that tells them apart may be missing. Equal entries are not always repeated. Entries after “also recorded” stand apart in the source; their conditions may differ.

How the values were obtained:
[1] = Weight and survival of tumor-bearing nude mice during and after treatment; type: in vivo; settings: for weight of nude mice: individual mice (1)-(5); for survival of tumor-bearing nude mice: five mice per group, observed for 60 days
Protocol: (§1) Male atypical nude mice, 6–8 weeks old, were used for in vivo xenograft tumor models. […] For the purpose of xenograft administration, nude mice were injected subcutaneously with 100 μL of 5 × 10^6 A549-Luc cell suspension. The presence of cancer after cell administration to nude mice was followed by imaging with an IVIS device. In order to monitor tumor formation and tumor volume detection, luciferin [Biovision Inc., USA; 12 mg/mL in phosphate-buffered saline (PBS)] was injected intraperitoneally followed by visualization with IVIS 5 min later. When tumor volume reaches about 2000 mm^3, cancerous nudes are divided into three groups: the control group, 3 group, and 4 group. Grouping was made as 3–5 animals in each group. The following procedures were prepared according to the groups, and then they were implemented. In addition, the weights of nude mice were regularly checked and recorded.
Male atypical nude mice aged 6–8 weeks are commonly used in in vivo xenograft tumor models. A549-luc lung cancer cells were injected into nude mice in all three groups, and tumor growth was induced with a xenograft model. For xenograft administration, 100 μL of 5 × 10^6 A549-luc cell suspension was injected subcutaneously into nude mice. After cell application to nude mice, it was determined whether there was cancer or not by imaging with the IVIS device. After the cancer groups were formed, the treatment phase was started. […] Each prepared sample was given to the animals by tail vein administration, three doses (as described in Section 2.3) per week, and the IVIS images taken at 5 min after luciferin (200 μL of 12 mg/mL stock administered subcutaneously) at certain time intervals were evaluated.

CD1 mice = assay: Acute toxicity study; type: in vivo; settings: 200 μM, 100 μL intravenously once, 2 females and 2 males, 14 days
[2] = system: A549-Luc lung cancer cells; assay: In vivo xenograft tumor model, tumor size by IVIS imaging; set-up: species or system nude mice; settings: for tumor size: individual nude mice, Tnd = tumor not detected, Ex = dead; for tumor outcome after treatment: A549-Luc xenograft nude mice, IVIS imaging; for tumor size initially: before treatment, individual nude mice (1)-(5)
Protocol: Luc cell line (A549-Luc cell), which has luciferase activity, was used to determine the cancer treatment potential of compounds 3 and 4 for in vivo experiments. Cells were cultured in DMEM Ham’s F12 [10% FBS, 1% L-glutamine, 1% gentamicin, and 1 mM 4-(2-hydroxyethyl)-1-piperazineethanesulfonic acid] broth in a CO2 incubator set at 37 °C. Sufficient stocks were prepared by passaging the cells twice a week, and cells that actively proliferated in the logarithmic phase were used in the tests.
as §1, with “Approval for monitoring the cancer treatment potential of the synthesized structures in vivo conditions was taken by the Animal Ethics Committee of Ege University on 24.01.2018 with the number 2018-015. Male” for “Male”
Compound 3(Y) group: Compound 3(Y) was prepared in DMSO at a concentration of 200 μM, and 20 μL was administered via the tail vein in three doses a week.
Compound 4(X) group: Compound 4(X) was prepared in DMSO at a concentration of 200 μM, and 20 μL was given three doses a week through the tail vein.
Male atypical nude mice aged 6–8 weeks are commonly used in in vivo xenograft tumor models. A549-luc lung cancer cells were injected into nude mice in all three groups, and tumor growth was induced with a xenograft model. For xenograft administration, 100 μL of 5 × 10^6 A549-luc cell suspension was injected subcutaneously into nude mice. After cell application to nude mice, it was determined whether there was cancer or not by imaging with the IVIS device. After the cancer groups were formed, the treatment phase was started. Compound 4(X) substance, compound 3(Y), and cancer control groups were formed, five in each group. Each prepared sample was given to the animals by tail vein administration, three doses (as described in Section 2.3) per week, and the IVIS images taken at 5 min after luciferin (200 μL of 12 mg/mL stock administered […]) at certain time intervals were evaluated. Although no tumor was detected on the 15th day after cell implantation, the treatment was continued for two more weeks and whether the tumor recurred or not was determined by IVIS imaging.

HeLa cell lines = system: HeLa cell lines; set-up: method as in PMID 31759659; settings: 48 h; cited from earlier work
[3] = 28 day subacute toxicity study, blood biochemical parameters; settings: for ALB / ALT / AST / TBIL: 200 μM group, 100 μL i.v. 3 times a week for 4 weeks, blood
[4] = 3 days, 200 μM, 20 μL tail vein, three doses a week, in g (unit assumed)
[5] = 7 days, 200 μM, 20 μL tail vein, three doses a week, in g (unit assumed)
[6] = 10 days, 200 μM, 20 μL tail vein, three doses a week, in g (unit assumed)
[7] = 15 days, 200 μM, 20 μL tail vein, three doses a week, in g (unit assumed)
[8] = 200 μM, 20 μL tail vein, three doses a week
[9] = initially, 200 μM in DMSO, 20 μL tail vein, three doses a week, in g (unit assumed)
[10] = 7 days, 200 μM, 20 μL tail vein, three doses a week

SMILES: CC(=O)O[C@H]1C=C[C@H](OC(C)=O)[C@H]2C(=O)N(Cc3ccccc3)C(=O)[C@H]21 [compound 3]
- weight of nude mice [1, 4]: 26.25 and 24.90 and 23.54 and 27.20
- weight of nude mice [1, 5]: 28.50 and 25.42 and 24.87 and 29.26 and 30.77
- weight of nude mice [1, 6]: 28.52 and 25.98 and 25.89 and 30.26 and 32.07
- weight of nude mice [1, 7]: 31.02 and 28.50 and 26.43 and 32.30 and 33.71
- weight of nude mice ([1]; 20 days, Ex = dead, in g (unit assumed)): 32.60 and 30.60 and 28.70 and 33.78 and 36.05
- weight of nude mice ([1]; 30 days, Ex = dead, in g (unit assumed)): 30.90 and 29.40 and 32.96 and 34.86
- weight of nude mice ([1]; 40 days, treatment discontinued on day 30, Ex = dead, in g (unit assumed)): 30.81 and 31.30 and 30.31 and 32.30 and 34.31
- weight of nude mice ([1]; 50 days, treatment discontinued on day 30, Ex = dead, in g (unit assumed)): 30.91 and 33.40 and 31.25 and 33.12 and 34.65
- weight of nude mice ([1]; 60 days, treatment discontinued on day 30, Ex = dead, in g (unit assumed)): 32.39 and 34.65 and 32.60 and 33.37 and 35.95
- survival of tumor-bearing nude mice [1, 8]: did not die; also recorded: survived for 60 days
- weight of nude mice [1, 9]: 23.58 and 24.10 and 22.14 and 22.18 and 24.24
- abnormalities in the behavior of the mice (CD1 mice): no abnormalities
- tumor size [2, 10]: Tnd
- tumor size ([2]; 15 days): Tnd
- tumor size ([2]; 45 days): Tnd
- tumor outcome after treatment [2]: completely destroyed
- tumor size initially [2]: 404.93 mm^3 and 301.26 mm^3 and 424.93 mm^3 and 731.33 mm^3 and 600.97 mm^3
- IC50 (HeLa cell lines): 149 µM
- ALB [3]: 2.34 ± 0.05
- ALT [3]: 60.5 ± 6.36
- AST [3]: 114 ± 9.90
- TBIL [3]: 0.02 ± 0.01
- increase of AST level compared with the control group ([3]; 1st dose (200 μM) groups): more than the increase related to 4

SMILES: CC(=O)O[C@@H]1[C@@H]2C(=O)N(Cc3ccccc3)C(=O)[C@@H]2C=C[C@H]1Cl [compound 4]
- weight of nude mice [1, 4]: 29.17 and 26.62 and 29.35 and 24.80 and 28.90
- weight of nude mice [1, 5]: 33.10 and 30.76 and 32.46 and 25.32 and 30.89
- weight of nude mice [1, 6]: 31.71 and 30.85 and 31.40 and 27.13 and 31.24
- weight of nude mice [1, 7]: 35.20 and 32.46 and 31.25 and 28.34 and 32.30
- weight of nude mice ([1]; 20 days, Ex = dead): 37.08 and Ex
- weight of nude mice ([1]; 30 days, Ex = dead): 35.54 and Ex
- weight of nude mice ([1]; 40 days, treatment discontinued on day 30, Ex = dead): 34.30 and Ex
- weight of nude mice ([1]; 50 days, treatment discontinued on day 30, Ex = dead): 30.41 and Ex
- weight of nude mice ([1]; 60 days, treatment discontinued on day 30, Ex = dead): 32.95 and Ex
- survival of tumor-bearing nude mice [1, 8]: became Ex after 15 days; also recorded: found Ex in their cages after the 3rd dose; also recorded: four nude mice were dead; also recorded: showed Ex after the third dose
- weight of nude mice [1, 9]: 24.57 and 22.94 and 24.50 and 23.01 and 24.01
- abnormalities in the behavior of the mice (CD1 mice): no abnormalities
- tumor size [2, 10]: Tnd ^a
- tumor size ([2]; 15 days): Tnd ^a and Ex
- tumor size ([2]; 45 days): Tnd ^a and Ex
- tumor outcome after treatment [2]: completely destroyed
- tumor size initially [2]: 570.91 mm^3 and 403.71 mm^3 and 482.52 mm^3 and 1518.02 mm^3 and 1124.09 mm^3
- IC50 (HeLa cell lines): 141 µM
- ALB [3]: 2.63 ± 0.07
- ALT [3]: 57.5 ± 0.71
- AST [3]: 94.5 ± 3.54
- TBIL [3]: 0.03 ± 0.03
